Here are results for ten molecules from ChEMBL document CHEMBL1201862, “PubChem BioAssay data set” (2004).

Test [1] addresses Aryl hydrocarbon receptor (Homo sapiens, UniProt P35869). As to conditions: Potency.
The target in test [2] is Beta-lactamase (Salmonella choleraesuis (strain SC-B67), UniProt Q5J463).
Test [3] has as its target Beta-lactamase (Pseudomonas aeruginosa, UniProt Q79MP6).
Test [4] concerns the target T1, Beta Lactamase (Pseudomonas aeruginosa, UniProt Q932Y6).
Test [5] in a line: bead-based luminescence quenchers, dual-tagged ARNT – biochemical, AlphaScreen, cherry-pick, artefact control for ARNT-TACC3 interaction inhibitor project, dose response (AID 651705).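 Further: AlphaScreen bead proximity signal that flags compounds interfering with the detection technology; potency reflects signal decrease which marks the compound as an assay artifact.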 In kind it is functional. Background: In Alpha technology, singlet oxygen from a donor bead excites a nearby acceptor bead.
The target in test [6] is T2, Orexin receptor type 2 (Homo sapiens, UniProt O43614).
T2 sequence (O43614 whole entry): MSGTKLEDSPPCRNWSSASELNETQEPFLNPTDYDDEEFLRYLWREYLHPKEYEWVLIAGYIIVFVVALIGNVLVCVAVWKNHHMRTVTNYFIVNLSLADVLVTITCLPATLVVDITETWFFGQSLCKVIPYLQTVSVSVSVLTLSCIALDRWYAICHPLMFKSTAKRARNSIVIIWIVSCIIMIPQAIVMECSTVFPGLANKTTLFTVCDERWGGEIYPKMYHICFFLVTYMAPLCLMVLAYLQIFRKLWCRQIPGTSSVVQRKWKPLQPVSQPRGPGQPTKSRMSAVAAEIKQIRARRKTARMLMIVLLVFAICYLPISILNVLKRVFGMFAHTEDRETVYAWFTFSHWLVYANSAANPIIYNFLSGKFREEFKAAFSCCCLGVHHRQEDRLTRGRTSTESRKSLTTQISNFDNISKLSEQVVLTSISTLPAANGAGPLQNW
The test can be described thus: Counterscreen assay for antagonists of the orexin 1 receptor (OX1R; HCRTR1): Homogeneous Time Resolved Fluorescence (HTRF)-based cell-based dose response assay for antagonists of the orexin 2 receptor (OX2R; HCRTR2), run by assay provider. In kind it is functional.

The target of test [7] is T3, Probable nicotinate-nucleotide adenylyltransferase (Staphylococcus aureus (strain N315), UniProt P65502). It counts as functional, Staphylococcus aureus subsp. aureus N315.
T3 sequence (P65502 whole entry): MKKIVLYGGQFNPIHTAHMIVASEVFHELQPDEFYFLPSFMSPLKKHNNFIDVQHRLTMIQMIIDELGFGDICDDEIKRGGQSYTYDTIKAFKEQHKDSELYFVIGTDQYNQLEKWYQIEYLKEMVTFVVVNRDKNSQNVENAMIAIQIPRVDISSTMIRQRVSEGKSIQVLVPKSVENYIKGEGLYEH
Test [8] concerns the target T3, Probable nicotinate-nucleotide adenylyltransferase. It counts as functional, Staphylococcus aureus subsp. aureus N315. As to conditions: read-out: IC50_Mean.
In test [9] the target is Peroxisome proliferator-activated receptor gamma/Nuclear receptor coactivator 1 (Homo sapiens, UniProt P37231). In kind it is functional.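 Further: agonist potency as compounds enhance coactivator SRC-1 recruitment to PPARgamma.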
Chain of Peroxisome proliferator-activated receptor gamma/Nuclear receptor coactivator 1 (P37231 whole entry): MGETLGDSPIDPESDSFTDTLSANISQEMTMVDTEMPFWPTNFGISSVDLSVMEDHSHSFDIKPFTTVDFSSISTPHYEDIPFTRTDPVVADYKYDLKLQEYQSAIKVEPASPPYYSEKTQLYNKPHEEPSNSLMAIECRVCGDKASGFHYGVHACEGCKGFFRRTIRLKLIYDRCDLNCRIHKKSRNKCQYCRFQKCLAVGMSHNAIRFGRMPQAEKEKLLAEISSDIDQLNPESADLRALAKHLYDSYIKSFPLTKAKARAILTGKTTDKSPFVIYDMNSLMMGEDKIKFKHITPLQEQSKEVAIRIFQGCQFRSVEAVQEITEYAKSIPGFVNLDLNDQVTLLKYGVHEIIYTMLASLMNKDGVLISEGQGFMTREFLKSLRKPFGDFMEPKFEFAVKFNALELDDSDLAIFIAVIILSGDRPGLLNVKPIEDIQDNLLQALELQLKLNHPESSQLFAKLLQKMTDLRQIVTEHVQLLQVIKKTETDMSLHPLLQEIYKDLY
Chain of Peroxisome proliferator-activated receptor gamma/Nuclear receptor coactivator 1 (Q15788 whole entry, further chain): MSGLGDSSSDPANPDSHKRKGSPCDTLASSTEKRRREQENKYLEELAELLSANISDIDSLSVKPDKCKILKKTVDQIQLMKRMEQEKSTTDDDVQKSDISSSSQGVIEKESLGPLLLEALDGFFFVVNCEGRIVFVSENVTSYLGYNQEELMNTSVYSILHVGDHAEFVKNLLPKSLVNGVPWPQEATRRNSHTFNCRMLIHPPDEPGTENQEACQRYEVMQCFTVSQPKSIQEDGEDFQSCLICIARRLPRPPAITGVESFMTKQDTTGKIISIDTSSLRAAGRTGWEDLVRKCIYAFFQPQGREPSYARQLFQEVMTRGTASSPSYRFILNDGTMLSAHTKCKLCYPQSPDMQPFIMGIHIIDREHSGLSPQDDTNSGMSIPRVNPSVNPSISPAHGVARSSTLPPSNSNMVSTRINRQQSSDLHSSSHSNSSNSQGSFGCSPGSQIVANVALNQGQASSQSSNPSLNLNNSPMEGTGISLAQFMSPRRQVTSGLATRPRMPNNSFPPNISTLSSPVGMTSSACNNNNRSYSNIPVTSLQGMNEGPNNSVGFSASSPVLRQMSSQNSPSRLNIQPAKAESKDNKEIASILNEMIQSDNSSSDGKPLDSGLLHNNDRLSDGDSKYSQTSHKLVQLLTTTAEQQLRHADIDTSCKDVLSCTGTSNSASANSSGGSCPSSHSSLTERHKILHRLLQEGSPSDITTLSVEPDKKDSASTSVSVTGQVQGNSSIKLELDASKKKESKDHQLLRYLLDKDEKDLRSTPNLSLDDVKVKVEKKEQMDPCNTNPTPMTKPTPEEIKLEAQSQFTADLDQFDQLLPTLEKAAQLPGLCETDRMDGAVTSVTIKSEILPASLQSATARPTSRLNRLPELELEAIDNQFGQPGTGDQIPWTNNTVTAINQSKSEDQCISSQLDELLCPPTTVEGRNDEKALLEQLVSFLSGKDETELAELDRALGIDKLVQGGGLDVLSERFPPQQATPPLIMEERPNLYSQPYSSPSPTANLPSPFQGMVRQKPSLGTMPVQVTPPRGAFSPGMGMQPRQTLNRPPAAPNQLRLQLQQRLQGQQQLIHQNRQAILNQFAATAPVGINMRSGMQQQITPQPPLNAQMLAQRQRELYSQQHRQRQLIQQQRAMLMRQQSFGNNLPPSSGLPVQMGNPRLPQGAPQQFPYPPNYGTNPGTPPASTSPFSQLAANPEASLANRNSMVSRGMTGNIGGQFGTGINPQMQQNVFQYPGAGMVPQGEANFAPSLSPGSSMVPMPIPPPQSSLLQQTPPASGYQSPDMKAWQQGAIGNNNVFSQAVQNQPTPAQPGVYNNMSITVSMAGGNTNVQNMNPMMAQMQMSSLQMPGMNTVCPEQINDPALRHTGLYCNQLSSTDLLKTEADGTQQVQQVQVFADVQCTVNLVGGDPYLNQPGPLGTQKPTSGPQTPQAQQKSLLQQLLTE
Test [10] addresses T4, Orexin/Hypocretin receptor type 1 (Homo sapiens, UniProt O43613).
T4 sequence (O43613 whole entry): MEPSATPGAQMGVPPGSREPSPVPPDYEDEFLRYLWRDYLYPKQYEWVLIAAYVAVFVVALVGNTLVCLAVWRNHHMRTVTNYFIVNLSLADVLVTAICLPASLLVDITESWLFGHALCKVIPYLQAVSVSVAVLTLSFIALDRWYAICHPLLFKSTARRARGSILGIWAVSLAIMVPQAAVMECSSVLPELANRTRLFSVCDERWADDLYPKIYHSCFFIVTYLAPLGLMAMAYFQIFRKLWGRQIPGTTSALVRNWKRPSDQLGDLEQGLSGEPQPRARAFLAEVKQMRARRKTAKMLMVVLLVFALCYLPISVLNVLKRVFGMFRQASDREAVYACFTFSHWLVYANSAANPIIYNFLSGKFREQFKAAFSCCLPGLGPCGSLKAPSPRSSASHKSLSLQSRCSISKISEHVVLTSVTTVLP
In words: Fluorescence-based cell-based high throughput dose response assay for antagonists of the orexin 1 receptor (OX1R; HCRTR1). [Related pubchem assays (depositor defined):AID434989, AID435008, AID463079, AID485270, AID492963, AID492964, AID492965, AID493232, AID504717, AID504718]. In kind it is functional.

The target in test [11] is T2, Orexin receptor type 2. The test can be described thus: Counterscreen assay for antagonists of the orexin 1 receptor (OX1R; HCRTR1): Fluorescence-based cell-based dose response assay for antagonists of the orexin 2 receptor (OX2R; HCRTR2), run by assay provider. In kind it is functional.
The target of test [12] is Peroxisome proliferator-activated receptor gamma/Nuclear receptor coactivator 2 (Homo sapiens, UniProt P37231). It counts as functional.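 Further: agonist potency for raising coactivator recruitment to the receptor.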
Test [13] deals with Peroxisome proliferator-activated receptor gamma/Nuclear receptor coactivator 3 (Homo sapiens, UniProt P37231). It counts as functional.
Test [14] concerns the target Disintegrin and metalloproteinase domain-containing protein 17 (Homo sapiens, UniProt P78536). The test can be described thus: inhibition of ADAM17 substrate cleavage – biochemical, quenched FRET substrate, counter-screen for ADAM10 exosite inhibitor project, dose response (AID 743253). (Counterscreens check selectivity or assay interference.)
For test [15], the system named is CHO-K1. In words: Counterscreen for antagonists of the orexin 1 receptor (OX1R; HCRTR1): Homogeneous time resolved fluorescence (HTRF)-based cell-based dose response assay to identify antagonists of the parental CHO-K1 cell line. [Related pubchem assays (depositor defined):AID434989, AID435008, AID463079, AID485270, AID492963, AID492964, AID492965, AID493232, AID504699, AID504701]. To be noted: Cricetulus griseus. It counts as functional.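 Further: potency for inhibition of ATP-stimulated IP1 production as antagonists.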

Test [16] is described as follows: Counterscreen for antagonists of the orexin 1 receptor (OX1R; HCRTR1): Fluorescence-based cell-based high throughput dose response assay to identify antagonists of the parental CHO cell line. [Related pubchem assays (depositor defined):AID434989, AID435008, AID463079, AID485270, AID492963, AID492964, AID492965, AID493232, AID504699, AID504701]. In kind it is functional.

Test [17] has as its target T4, Orexin/Hypocretin receptor type 1. In words: Homogeneous Time Resolved Fluorescence (HTRF)-based cell-based high throughput dose response assay for antagonists of the orexin 1 receptor (OX1R; HCRTR1). [Related pubchem assays (depositor defined):AID434989, AID435008, AID463079, AID485270, AID492963, AID492964, AID492965, AID493232, AID504717, AID504718]. In kind it is functional.

Test [18] in a line: potency of ADAM10 substrate cleavage blockers – biochemical, QFRET, dose response (AID 743254).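 Further: ADAM10 enzyme with the DM2 quenched FRET peptide as substrate; EDANS fluorescence gain as the protease cuts the substrate; inhibitor potency against ADAM10 proteolytic activity.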
Test [19] can be described thus: Luminescence Cell-Based Dose Retest to Confirm Inhibitors of Cancer Stem Cells. [Related pubchem assays (depositor defined):AID2717, AID2721]. As to conditions: Homo sapiens. It counts as functional.
Test [20] in a line: loss of viability in HepG2 cells – cell-based, CellTiter-Glo, cherry-picked, cytotoxicity control for Shn3 inhibitor project, dose response (AID 624134). It counts as functional. On the technique in general: In ATP-based viability assays light output follows the ATP content of the culture.
Test [21] in a line: reduction of Shn3 3'UTR-driven luciferase in osteoblasts – cell-based, Clone20 osteoblasts, firefly luciferase, cherry-picked, dose response (AID 624132).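 Further: firefly luciferase luminescence from reporter carrying the Shn3 3'UTR in osteoblasts.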 In kind it is functional.
Test [22] has as its target Neurotensin receptor type 1 (Homo sapiens, UniProt P30989). It counts as functional.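 Further: Image-based confirmatory dose-response assay measuring agonist activity at NTR1; NTR1-expressing U2OS osteosarcoma cells imaged for beta-arrestin GFP spot formation; agonist potency where compounds increase beta-arrestin recruitment.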
The target in test [23] is Protein Wnt-3a (Mus musculus, UniProt P27467). The test can be described thus: antagonism of Wnt3a pathway luciferase reporter – Wnt-LIGHT cells, luminescence, selectivity assay for Gli-SUFU antagonist project, dose response (AID 651570).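 Further: Wnt-LIGHT reporter cells stimulated with conditioned medium from Wnt3a-producing cells.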 In kind it is functional. As to conditions: read-out: IC50_Mean.
Test [24] can be described thus: non-specific 3'UTR reporter inhibition in Clone20-Shn3RL – cell-based, Renilla luciferase, cherry-picked, counter-screen for Shn3 inhibitor project, dose response (AID 624133). In kind it is functional.
For test [25], the target named is T5, Mitochondrial peptide methionine sulfoxide reductase (Bos taurus, UniProt P54149).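 Further: absorbance read-out, biochemical high-throughput dose-response screen for MsrA inhibitors, confirmatory; recombinant bovine MsrA coupled to E. coli TrxB with NADPH and selenocystamine; potency is for inhibitors of MsrA activity on DMSO substrate.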
T5 sequence (P54149 whole entry): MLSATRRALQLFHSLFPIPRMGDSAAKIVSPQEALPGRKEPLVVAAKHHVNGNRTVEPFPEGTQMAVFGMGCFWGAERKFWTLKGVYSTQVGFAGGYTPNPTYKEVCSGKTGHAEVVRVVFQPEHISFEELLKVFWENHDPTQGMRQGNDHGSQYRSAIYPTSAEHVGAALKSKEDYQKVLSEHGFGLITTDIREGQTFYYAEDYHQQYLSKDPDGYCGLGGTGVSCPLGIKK
It counts as functional.

The target of test [26] is T1, Beta Lactamase. In words: BLA reporter interference, concentration series – BLA reporter cells, FRET fluorescence, artefact control for NOD2-RIPK2 interaction inhibitor project, dose response (AID 651552). It counts as functional, cell-based.
Test [27] in a line: Fluorescence-based cell-based high throughput dose response assay for inhibitors of the interaction of nucleotide-binding oligomerization domain containing 2 (NOD2) and the receptor-interacting serine-threonine kinase 2 (RIPK2). It counts as functional. As to conditions: Homo sapiens.
The test system of test [28] is Vero. The test can be described thus: cells. It counts as functional. As to conditions: Chlorocebus sabaeus.
Test [29] is described as follows: general cell-killing toxicity readout – plate reader, dry powder samples, cytotoxicity control for PAX8 inhibitor project, dose response (AID 743021). In kind it is functional, cell-based.
For test [30], the target named is Heat shock protein HSP 90-alpha (Homo sapiens, UniProt P07900). In kind it is functional, organism-based.
The target in test [31] is Paired box protein Pax-8 (Homo sapiens, UniProt Q06710). In words: PAX8 transcriptional activity inhibition in RMG-I – RMG-I cells, luciferase, cherry-pick, dose response (AID 687027).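 Further: luciferase reporter driven by Pax8 target thyroperoxidase promoter measured by SteadyGlo luminescence.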 It counts as functional, cell-based.
In test [32] the target is Nuclear receptor subfamily 5 group A member 2 (Homo sapiens, UniProt O00482). In kind it is functional, cell-based.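 Further: HEK293T cells transfected with LRH-1 and a StAR promoter luciferase reporter; potency for inhibitors that lower LRH-1 driven reporter light.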
Chain of Nuclear receptor subfamily 5 group A member 2 (O00482 whole entry): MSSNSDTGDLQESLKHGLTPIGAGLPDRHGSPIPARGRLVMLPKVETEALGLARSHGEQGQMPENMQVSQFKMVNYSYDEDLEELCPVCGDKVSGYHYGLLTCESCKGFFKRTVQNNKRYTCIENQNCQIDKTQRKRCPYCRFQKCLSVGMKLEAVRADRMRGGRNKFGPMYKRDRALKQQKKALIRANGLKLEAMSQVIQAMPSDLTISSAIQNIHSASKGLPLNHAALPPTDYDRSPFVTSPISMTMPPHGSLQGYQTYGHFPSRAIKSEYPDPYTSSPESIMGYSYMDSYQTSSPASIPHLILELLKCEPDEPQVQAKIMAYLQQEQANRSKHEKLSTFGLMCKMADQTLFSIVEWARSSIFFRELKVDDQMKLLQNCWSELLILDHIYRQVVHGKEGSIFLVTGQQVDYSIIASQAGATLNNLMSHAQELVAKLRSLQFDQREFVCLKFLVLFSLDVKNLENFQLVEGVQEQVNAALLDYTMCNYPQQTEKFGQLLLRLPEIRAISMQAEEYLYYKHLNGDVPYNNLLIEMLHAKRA
A short description of test [33]: nonselective StAR promoter luciferase inhibitors – cell-based, luminescence, luciferase reporter, counter-screen for LRH-1 inverse agonist project, dose response (AID 651969). It counts as functional.
Test [34] addresses Steroidogenic factor 1 (Homo sapiens, UniProt Q13285). The test can be described thus: Counterscreen for inverse agonists of the liver receptor homolog-1 (LRH-1; NR5A2): Luminescence-based cell-based high throughput dose response assay to identify inverse agonists of the Steroidogenic Factor 1 Nuclear Receptor (SF1; NR5A1). It counts as functional.
Test [35] concerns the target DNA repair and recombination protein RAD54-like (Homo sapiens, UniProt Q92698). In words: RAD54 Holliday junction migration blockers – biochemical, fluorescence, cherry-picked samples, dose series, confirmation (AID 651657). In kind it is functional.
Test [36] concerns the target FAD-linked sulfhydryl oxidase ALR (Homo sapiens, UniProt P55789). In words: ALR-catalysed DTT oxidation blockers – biochemical, H2O2 detection, luminescence, cherry-pick, dose response (AID 493248).
The target of test [37] is DNA repair protein RAD52 homolog (Homo sapiens, UniProt P43351). It counts as functional, biochemical.

Active and inactive are the calls of the source. A value given as a limit tells only on which side of the number the result lay.

T1 sequence (Q932Y6 whole entry): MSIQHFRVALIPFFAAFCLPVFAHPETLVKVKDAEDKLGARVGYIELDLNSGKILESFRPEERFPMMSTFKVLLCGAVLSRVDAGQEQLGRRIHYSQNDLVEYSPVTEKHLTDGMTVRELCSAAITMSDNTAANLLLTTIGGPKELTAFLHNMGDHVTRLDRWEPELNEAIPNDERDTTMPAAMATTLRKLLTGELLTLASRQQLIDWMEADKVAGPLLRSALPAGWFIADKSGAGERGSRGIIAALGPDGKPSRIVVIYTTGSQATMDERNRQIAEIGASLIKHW
Chain of Aryl hydrocarbon receptor (P35869 whole entry): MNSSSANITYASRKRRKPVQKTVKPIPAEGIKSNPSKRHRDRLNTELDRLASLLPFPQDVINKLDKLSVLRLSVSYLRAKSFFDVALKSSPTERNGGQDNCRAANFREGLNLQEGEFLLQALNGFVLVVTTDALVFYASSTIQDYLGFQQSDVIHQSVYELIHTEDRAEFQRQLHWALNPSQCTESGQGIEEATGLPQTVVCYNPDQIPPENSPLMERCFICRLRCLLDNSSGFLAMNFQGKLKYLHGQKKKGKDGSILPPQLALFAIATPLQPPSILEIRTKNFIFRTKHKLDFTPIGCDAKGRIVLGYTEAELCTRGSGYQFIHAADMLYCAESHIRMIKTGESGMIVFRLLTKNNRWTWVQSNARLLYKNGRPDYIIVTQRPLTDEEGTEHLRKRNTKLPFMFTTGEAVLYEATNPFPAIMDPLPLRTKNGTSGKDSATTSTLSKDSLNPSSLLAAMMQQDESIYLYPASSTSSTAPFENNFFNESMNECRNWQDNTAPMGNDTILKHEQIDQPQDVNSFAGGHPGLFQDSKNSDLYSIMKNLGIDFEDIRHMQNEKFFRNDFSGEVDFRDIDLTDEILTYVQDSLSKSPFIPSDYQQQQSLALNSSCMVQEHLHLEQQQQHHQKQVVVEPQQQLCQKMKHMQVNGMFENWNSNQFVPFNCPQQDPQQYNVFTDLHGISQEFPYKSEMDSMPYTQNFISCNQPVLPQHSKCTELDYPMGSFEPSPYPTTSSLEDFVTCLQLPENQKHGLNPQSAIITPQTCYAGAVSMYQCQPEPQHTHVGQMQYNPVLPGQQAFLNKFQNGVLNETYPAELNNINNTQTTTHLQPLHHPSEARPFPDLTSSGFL
Chain of FAD-linked sulfhydryl oxidase ALR (P55789 whole entry): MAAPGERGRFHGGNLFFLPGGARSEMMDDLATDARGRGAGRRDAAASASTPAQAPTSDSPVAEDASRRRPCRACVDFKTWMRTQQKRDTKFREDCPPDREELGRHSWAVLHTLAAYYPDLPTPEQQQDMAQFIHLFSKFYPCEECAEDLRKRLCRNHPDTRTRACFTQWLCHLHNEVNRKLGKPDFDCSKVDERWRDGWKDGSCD
Chain of Disintegrin and metalloproteinase domain-containing protein 17 (P78536 whole entry, the tested form may be a part): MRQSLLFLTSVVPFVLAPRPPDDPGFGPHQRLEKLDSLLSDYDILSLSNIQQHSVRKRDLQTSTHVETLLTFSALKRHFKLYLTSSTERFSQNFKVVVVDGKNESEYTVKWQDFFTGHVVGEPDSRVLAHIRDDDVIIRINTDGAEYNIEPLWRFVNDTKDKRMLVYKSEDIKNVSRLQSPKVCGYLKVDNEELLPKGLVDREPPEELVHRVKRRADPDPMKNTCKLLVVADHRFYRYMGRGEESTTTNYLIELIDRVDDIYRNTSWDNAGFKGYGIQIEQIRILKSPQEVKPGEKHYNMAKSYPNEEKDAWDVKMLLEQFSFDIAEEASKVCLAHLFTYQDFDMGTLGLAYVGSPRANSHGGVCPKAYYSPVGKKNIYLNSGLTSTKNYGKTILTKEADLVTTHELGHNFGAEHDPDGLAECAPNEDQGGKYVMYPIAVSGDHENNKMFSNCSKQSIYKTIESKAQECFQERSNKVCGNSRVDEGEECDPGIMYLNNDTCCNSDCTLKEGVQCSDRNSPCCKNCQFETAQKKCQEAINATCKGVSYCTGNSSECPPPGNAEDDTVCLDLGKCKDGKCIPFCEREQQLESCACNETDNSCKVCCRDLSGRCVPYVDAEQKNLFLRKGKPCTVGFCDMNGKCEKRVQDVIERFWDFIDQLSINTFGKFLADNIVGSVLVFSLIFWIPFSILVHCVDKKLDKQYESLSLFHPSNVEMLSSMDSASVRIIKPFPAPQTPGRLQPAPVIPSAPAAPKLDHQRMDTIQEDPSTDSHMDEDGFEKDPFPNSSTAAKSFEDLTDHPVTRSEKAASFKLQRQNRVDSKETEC

Consider `COC(=O)Nc1cccc(OC(=O)Nc2cccc(C)c2)c1`, for which, in [1], the AC50 (as a rule, the midpoint of the concentration-response curve, whichever way the signal moves) is 39.8 µM (inconclusive).

Regarding `O=C1C2C(c3ccccc3)C=CC(c3ccccc3)C2C(=O)N1c1ccncc1` (stereo not drawn), the IC50 was > 59.6 µM (inactive) in test [2], 14.6 µM (inactive) in [3] and 62.4 µM (inactive) in test [4].

As for `CC(=O)OC[C@H]1O[C@@H](Sc2cccc3cccnc23)[C@H](OC(C)=O)[C@@H](OC(C)=O)[C@H]1OC(C)=O`, the AC50 in [5] was 91.4 µM (active).

`O=C(CSc1ccc(Br)c2cccc(Cl)c12)Nc1ccc(S(=O)(=O)Nc2nccs2)cc1`: the IC50 was > 50 µM (inactive) in test [6]; 6.53 µM (active) in test [7]; 25.8 µM (active) in test [8]; 4.31 µM (active) in test [10]; 31.5 µM (inactive) in test [11]; > 69.5 µM (inactive) in test [14]. Also, the IC50 is > 66.2 µM (inactive) in test [15], > 49.8 µM (inactive) in [16], 1.43 µM (active) in [17] and > 69.5 µM (inactive) in test [18]. Further, the EC50 – broadly, the concentration needed to bring the measured effect to its halfway point – in [9] is 61 µM (not active); in [12], 28.6 µM (not active); in [13], 84.2 µM (not active).

For the molecule `CCCCNc1c(-c2ccc(OC)c(Sc3ccc(OC)cc3)c2)nc2ccccn12`, the AC50 in [19] is 6 µM (active); in [20] it was 48.4 µM (active); in [21] it was 0.821 µM (active); in [24] it was 4.38 µM (active). In addition, the EC50 in test [22] was 32.2 µM (inactive). Besides, the IC50 in [23] was 11.5 µM (active).

Consider `CC(NC(C)c1ccccc1Cl)C(=O)Nc1cccc(S(=O)(=O)N2CCCCC2)c1` (stereo not drawn), for which the IC50 in test [6] was > 50 µM (inactive); in test [10] it was 3.25 µM (active); in test [11], 18.9 µM (inactive); in [15] it was > 66.2 µM (inactive); in test [16] it was 48.8 µM (inactive); in test [17] it was 0.238 µM (active).

As to `COC1C(OC(=O)/C=C/C=C/C=C/C=C/C(=O)O)CCC2(CO2)C1C1(C)OC1CC=C(C)C.c1ccc(Nc2ccccc2)cc1` (stereo not drawn), the IC50 in [25] is 94.5 µM (inactive).

For `COC(=O)C1=C(C(=O)OC)C2OC1c1cc3ccccc3cc12`, the IC50 in [26] is 10.1 µM (inactive); in [27], 1.63 µM (active). Further, in test [28], the CC50 (as a rule, the concentration that lowers cell viability or growth by half) is > 25 µM (active). For the same molecule, the results for the AC50 in [29], in test [30] and in test [31] were 23 µM (active), 1.59 µM (active) and 5.41 µM (active), respectively.

Take `Cc1cccc(NC(=O)COC(=O)CN2C(=O)c3ccccc3C2=O)c1C`: the IC50 is 46.7 µM (inactive) in [32], 35.9 µM (inactive) in [33] and 5.33 µM (active) in test [34].

`COc1ccc(Nc2c3ccccc3nc3ccccc23)cc1`: the AC50 was 7.04 µM (active) in test [35], 0.016 µM (active) in test [36] and 1.9 µM (active) in test [37].
